According to patent US7462630B2, “Diarylalkene derivatives and novel diarylalkane derivatives” (Ajinomoto Co., Inc., priority 2001, dated 2008):

How the values were obtained:
N-type calcium channel = target: T1, N-type calcium channel (Homo sapiens, UniProt Q00975); assay: Antagonistic activity on N-type calcium channel (fluorescence dye method, KCl-stimulated intracellular calcium change in IMR-32 cells with 1 μM Nifedipine); type: cell-based; conditions: 10 μM test compound, 60 mM KCl stimulation, read-out: Antagonistic activity on N-type calcium channels at 10 μM inhibition rate (%)
T1 construct: host or cells: IMR-32 human neuroblastoma cells, differentiated with dibutyl cAMP and 5-bromodeoxyuridine
T1 sequence (Q00975 whole entry): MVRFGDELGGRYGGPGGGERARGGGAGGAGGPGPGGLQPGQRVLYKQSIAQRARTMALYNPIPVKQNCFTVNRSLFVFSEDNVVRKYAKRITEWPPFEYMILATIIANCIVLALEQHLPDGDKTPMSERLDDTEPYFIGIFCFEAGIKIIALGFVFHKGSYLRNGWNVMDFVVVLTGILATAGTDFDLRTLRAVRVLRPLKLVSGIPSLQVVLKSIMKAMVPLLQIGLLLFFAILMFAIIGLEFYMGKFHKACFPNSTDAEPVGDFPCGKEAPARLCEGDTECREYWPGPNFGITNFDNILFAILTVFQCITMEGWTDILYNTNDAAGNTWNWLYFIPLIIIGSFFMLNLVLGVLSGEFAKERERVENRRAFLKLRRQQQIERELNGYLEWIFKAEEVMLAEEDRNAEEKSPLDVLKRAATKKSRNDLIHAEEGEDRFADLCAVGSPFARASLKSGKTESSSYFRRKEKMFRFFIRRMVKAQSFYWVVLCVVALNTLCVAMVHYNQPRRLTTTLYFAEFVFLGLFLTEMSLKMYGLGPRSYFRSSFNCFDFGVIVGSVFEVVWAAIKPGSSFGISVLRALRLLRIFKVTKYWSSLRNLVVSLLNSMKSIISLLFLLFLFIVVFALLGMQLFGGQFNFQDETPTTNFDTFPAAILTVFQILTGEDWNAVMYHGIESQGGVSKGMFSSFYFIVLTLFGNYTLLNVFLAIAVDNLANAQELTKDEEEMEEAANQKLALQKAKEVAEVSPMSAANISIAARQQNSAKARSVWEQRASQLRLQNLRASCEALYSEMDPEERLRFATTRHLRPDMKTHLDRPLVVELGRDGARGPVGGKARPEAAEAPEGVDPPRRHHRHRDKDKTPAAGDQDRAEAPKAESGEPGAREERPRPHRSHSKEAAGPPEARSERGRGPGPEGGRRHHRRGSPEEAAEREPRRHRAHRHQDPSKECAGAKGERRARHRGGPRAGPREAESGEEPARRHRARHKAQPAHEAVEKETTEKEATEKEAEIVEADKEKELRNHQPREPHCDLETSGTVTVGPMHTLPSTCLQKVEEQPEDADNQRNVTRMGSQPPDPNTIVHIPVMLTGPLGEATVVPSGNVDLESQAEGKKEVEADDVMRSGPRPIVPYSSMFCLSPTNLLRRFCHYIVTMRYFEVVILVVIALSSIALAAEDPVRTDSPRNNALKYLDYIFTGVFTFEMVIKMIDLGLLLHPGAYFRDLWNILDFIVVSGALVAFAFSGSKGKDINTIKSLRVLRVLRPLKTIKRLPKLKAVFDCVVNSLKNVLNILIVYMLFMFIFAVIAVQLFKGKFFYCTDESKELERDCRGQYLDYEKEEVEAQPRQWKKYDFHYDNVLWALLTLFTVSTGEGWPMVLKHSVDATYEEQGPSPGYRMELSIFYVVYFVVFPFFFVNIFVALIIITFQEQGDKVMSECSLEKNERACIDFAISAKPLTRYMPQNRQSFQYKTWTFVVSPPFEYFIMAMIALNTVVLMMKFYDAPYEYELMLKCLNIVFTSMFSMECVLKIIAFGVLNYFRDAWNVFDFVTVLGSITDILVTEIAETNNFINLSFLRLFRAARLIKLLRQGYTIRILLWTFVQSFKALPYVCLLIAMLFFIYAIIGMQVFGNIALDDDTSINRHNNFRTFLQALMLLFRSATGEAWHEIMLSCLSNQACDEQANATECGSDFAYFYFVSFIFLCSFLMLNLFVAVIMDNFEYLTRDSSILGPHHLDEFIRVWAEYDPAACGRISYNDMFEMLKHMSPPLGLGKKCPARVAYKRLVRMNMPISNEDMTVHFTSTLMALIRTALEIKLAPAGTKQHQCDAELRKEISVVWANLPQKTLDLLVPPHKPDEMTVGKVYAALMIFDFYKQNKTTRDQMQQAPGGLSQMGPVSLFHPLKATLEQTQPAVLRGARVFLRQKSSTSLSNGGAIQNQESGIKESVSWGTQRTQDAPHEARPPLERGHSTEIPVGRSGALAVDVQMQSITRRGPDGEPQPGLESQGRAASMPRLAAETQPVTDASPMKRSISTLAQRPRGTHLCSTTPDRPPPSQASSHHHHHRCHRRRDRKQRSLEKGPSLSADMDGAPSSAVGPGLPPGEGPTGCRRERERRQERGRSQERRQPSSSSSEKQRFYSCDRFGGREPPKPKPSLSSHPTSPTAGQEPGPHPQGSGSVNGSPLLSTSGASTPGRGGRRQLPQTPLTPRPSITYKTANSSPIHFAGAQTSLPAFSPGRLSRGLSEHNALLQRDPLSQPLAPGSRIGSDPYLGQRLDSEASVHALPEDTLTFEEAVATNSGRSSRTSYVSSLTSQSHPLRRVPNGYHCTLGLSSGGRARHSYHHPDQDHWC
T1 sequence (P54284 whole entry partner): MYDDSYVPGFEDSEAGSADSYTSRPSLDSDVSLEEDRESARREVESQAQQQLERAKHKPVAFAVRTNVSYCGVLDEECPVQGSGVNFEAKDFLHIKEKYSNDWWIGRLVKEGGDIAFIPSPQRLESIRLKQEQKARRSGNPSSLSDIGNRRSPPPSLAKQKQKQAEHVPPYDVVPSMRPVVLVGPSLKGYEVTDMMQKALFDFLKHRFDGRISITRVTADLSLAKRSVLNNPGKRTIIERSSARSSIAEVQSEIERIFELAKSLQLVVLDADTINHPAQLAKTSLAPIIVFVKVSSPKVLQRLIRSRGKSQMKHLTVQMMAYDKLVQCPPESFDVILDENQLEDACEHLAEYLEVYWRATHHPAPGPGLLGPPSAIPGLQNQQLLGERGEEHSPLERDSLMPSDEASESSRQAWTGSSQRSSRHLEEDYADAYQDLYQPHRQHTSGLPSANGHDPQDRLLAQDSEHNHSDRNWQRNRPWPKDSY
T1 sequence (P54289 25-956 partner limits assumed): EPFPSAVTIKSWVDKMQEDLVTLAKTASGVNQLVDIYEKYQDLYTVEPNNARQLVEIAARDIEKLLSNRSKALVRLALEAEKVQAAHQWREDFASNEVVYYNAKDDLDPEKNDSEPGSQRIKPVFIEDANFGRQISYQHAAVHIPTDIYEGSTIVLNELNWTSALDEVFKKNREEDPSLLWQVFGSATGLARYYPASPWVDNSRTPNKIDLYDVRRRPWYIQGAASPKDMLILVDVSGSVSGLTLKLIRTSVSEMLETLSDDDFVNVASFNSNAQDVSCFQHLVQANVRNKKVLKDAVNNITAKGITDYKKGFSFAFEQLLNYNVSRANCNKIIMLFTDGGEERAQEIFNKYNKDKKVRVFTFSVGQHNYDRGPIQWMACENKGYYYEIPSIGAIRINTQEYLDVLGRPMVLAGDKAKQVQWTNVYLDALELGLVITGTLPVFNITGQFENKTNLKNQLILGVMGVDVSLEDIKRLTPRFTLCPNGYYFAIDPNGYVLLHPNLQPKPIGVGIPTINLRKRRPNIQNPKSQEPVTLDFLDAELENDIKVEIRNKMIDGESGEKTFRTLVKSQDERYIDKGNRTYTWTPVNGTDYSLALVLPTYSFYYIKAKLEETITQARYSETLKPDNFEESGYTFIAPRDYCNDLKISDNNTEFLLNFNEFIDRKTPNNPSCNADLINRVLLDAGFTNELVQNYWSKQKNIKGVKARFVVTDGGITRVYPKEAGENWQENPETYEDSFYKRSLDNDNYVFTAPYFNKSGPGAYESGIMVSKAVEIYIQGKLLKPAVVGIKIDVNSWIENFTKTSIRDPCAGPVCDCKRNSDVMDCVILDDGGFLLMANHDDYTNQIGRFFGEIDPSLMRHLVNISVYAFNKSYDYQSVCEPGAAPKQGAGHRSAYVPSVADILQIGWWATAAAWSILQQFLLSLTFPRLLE
T1 sequence (P54289 957-1103 partner limits assumed): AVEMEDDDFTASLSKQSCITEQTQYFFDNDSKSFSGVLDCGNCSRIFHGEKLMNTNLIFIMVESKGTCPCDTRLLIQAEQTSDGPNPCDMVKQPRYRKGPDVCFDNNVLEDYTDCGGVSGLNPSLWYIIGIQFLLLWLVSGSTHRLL
Procedure: Human neuroblastoma cells IMR-32 were obtained from ATCC (American Type Culture Collection). The medium used was a Phenol Red-free Eagle minimum essential medium containing earle's salts (GIBCO) supplemented with 2 mM of L-glutamine (GIBCO), 1 mM of sodium pyruvate (pH 6.5) (GIBCO), antibiotic/antimycotic mixture (GIBCO) and 10% fetal calf serum (Cell Culture Technologies). Three ml of 1×10^5 cells/ml IMR-32 cells were spread on the glass bottom of a dish (Iwaki Glsss Co., Ltd.) having a diameter of 35 mm which had been treated with poly-L-lysin (SIGMA) and collagen (COLLAGEN VITROGEN 100; Collagen Co.). After the culture for 1 day, 1 mM (final concentration) of dibutyl cAMP and 2.5 μM (final concentration) of 5-bromodeoxyuridine (SIGMA) were added. After the culture for additional 10 to 14 days, the cells were subjected to the activity determination.
The medium for IMR-32 cells thus prepared was replaced with 1 ml of Phenol Red-free Eale minimum essential medium (GIBCO) containing 2.5 μM fura-2/AM (Dojin Kagaku, Co.) and earle's salts supplement, and the incubation was conducted at 37° C. for 30 minutes. Then the medium was replaced with a recording medium (20 mM of HEPES-KOH, 115 mM of NaCl, 5.4 mM of KCl, 0.8 mM of MgCl2, 1.8 mM of CaCl2 and 13.8 mM of D-glucose). Antagonistic activity on N-type calcium channel was determined and analyzed using a fluorescence microscope (Nikon Corporation) and an image analysis device ARGUS 50 (Hamamatsu Photonics). In particular, a recording medium (20 mM of HEPES-KOH, 115 mM of NaCl, 5.4 mM of KCl, 0.8 mM of MgCl2, 1.8 mM of CaCl2 and 13.8 mM of D-glucose) containing 1 μM of Nifedipine was given to the cells by reflux by a Y-tube method for 2 minutes. Then a stimulating agent containing 60 mM of potassium chloride was rapidly given by the Y-tube method. The calcium concentration change in the cells in this step was shown as the N-type calcium channel activity. Then stimulating agents containing 60 mM of potassium chloride and 0.1, 1 or 10 μM of the test compound were successively and rapidly given to the cells by the Y-tube method to determine the change in the intracellular calcium concentration. The antagonistic activity on N-type calcium channel was calculated from the inhibition rate (%) at a concentration of 10 μM.

L-type calcium channel = target: T2, L-type calcium channel (Rattus norvegicus, UniProt P22002); assay: Antagonistic activity on L-type calcium channel (relaxation response against KCl-induced contraction of isolated rat thoracic aorta); conditions: read-out: Antagonistic action on L-type calcium channels pIC50 (converted)
T2 construct: relaxation response against the KCl-induced contraction of isolated rat thoracic aorta was employed; from tissue; host or cells: endothelium-denuded thoracic aorta rings of Wistar rat
Procedure: The antagonistic activity of the new diarylalkene derivatives and diarylalkane derivatives of the present invention to inhibit L-type calcium channel was determined by the following method in which the relaxation response against the KCl-induced contraction of isolated rat thoracic aorta was employed.
The slips of thoracic aorta isolated from a Wistar rat were used. The aorta was cut to obtain ring-shaped samples having a width of about 3 mm. The endothelial cells of the samples were mechanically removed. The samples were suspended in a strain gage in Tyrode's solution (158.3 mM of NaCl, 4.0 mM of KCl, 1.05 mM of MgCl2, 0.42 mM of NaH2PO4, 10 mM of NaHCO3, 2 mM of CaCl2 and 5 mM of glucose) in which a gaseous mixture of O2 (95%) and CO2 (5%) was introduced. A static tension of 2 g was applied thereto. The tension of the blood vessel was amplified with a transducer and a tension amplifier (EF-601G; Nihon Koden Corporation) and recorded with a multi-pen recorder (Rikadenki Kogyo Co., Ltd.). The experiments were conducted at 37° C.
After the tension had been stabilized, the nutrient solution in the sample tank was replaced with High K^+ Tyrode's solution (112.3 mM of NaCl, 50 mM of KCl, 1.05 mM of MgCl2, 0.42 mM of NaH2PO4, 10 mM of NaHCO3, 2 mM of CaCl2 and 5 mM of glucose) to conduct the contraction reaction. Thirty minutes after, the solution in the sample tank was replaced with the normal Tyrode's solution. The solution in the sample tank was again replaced with the High K^+ Tyrode's solution and the contraction reaction was observed. After attaining the maximum contraction reaction, the test compound was cumulatively added at intervals of 90 minutes to attain concentrations of 10^−9, 10^−8, 10^−7 and 10^−6 M. The inhibitory rate of the test compound against the maximum contraction response was employed as the index of the antagonistic activity on L-type calcium channels.
The value of pIC50 indicates the antagonistic activity of the test compound, i. e. the negative logarithm of the concentration of the test compound necessitated for the 50% inhibition.

inhibition at 10 µM (N-type calcium channel) [%]	IC50 (L-type calcium channel) [nM]	Compound
75	1260	CC(C)(C)OC(=O)NCC(=O)N1CCC(=C2c3ccccc3CCc3ccccc32)CC1 [Example 16, t-butyl 2-[4(10,11-dihydro-5H-dibenzo[a,d][7]annulen-5-ylidene)-1-piperidinyl]-2-oxoethyl carbamate]
78	1000	CC(C)(C)OC(=O)NCC(=O)N1CCC(=C2c3ccccc3CSc3ccccc32)CC1 [Example 24, t-butyl 2-(4-dibenzo[b,e]thiepin-11(6H)-ylidene-1-piperidinyl)-2-oxoethylcarbamate]
82	398	CC(C)(C)OC(=O)N[C@@H](CO)CC(=O)N1CCC(=C2c3ccccc3C=Cc3ccccc32)CC1 [Example 68, (R)-t-butyl 3-[4-(5H-dibenzo[a,d][7]annulen-5-ylidene)-1-piperidinyl]-1-(hydroxymethyl)-3-oxopropylcarbamate]
81	794	CC(C)(C)C(=O)N[C@@H](CO)CCC(=O)N1CCC(=C2c3ccccc3C=Cc3ccccc32)CC1 [Example 72, (R)-N-[4-[4-(5H-dibenzo[a,d][7]annulen-5-ylidene)-1-piperidinyl]-1-(hydroxylmethyl)-4-oxobutyl]-2,2-dimethylpropanamide]
85	794	CC(C)(C)OC(=O)N[C@@H](CO)CC(=O)N1CCC(=C2c3ccccc3Sc3ccccc32)CC1 [Example 76, tert-butyl (1R)-1-(hydroxymethyl)-3-oxo-3-[4-(9H-thioxanthen-9-ylidene)-1-piperidinyl]propylcarbamate]
84	2510	CC(C)(C)C(=O)N[C@H](CO)CCC(=O)N1CCC(=C2c3ccccc3CCc3ccccc32)CC1 [Example 78]

Further lines, the compound ahead of its results:

Compound	inhibition at 10 µM (N-type calcium channel) [%]	IC50 (L-type calcium channel) [nM]
CC(C)(C)OC(=O)NCC(=O)N1CCC(=C2c3ccccc3C=Cc3ccccc32)CC1 [Example 1, t-butyl 2-[4-(5H-dibenzo[a,d][7]annulen-5-ylidene)-1-piperidinyl]-2-oxoethylcarbamate]	67	1000
CC(C)(C)NC(=O)CCC(=O)N1CCC(=C2c3ccccc3C=Cc3ccccc32)CC1 [Example 9, N-(t-butyl)-4-[4-(5H-dibenzo[a,d][7]annulen-5-ylidene)-1-piperidinyl]-4-oxobutanamide]	83	501
CC(C)(C)OC(=O)NCCCNC(=O)C=C1c2ccccc2C=Cc2ccccc21 [Example 41, t-butyl 3-[(5H-dibenzo[a,d][7]annulen-5-ylidenacetyl)amino]-propylcarbamate]	76	1260
CCOC(=O)N[C@@H](CO)CC(=O)N1CCC(=C2c3ccccc3C=Cc3ccccc32)CC1 [Example 73, (R)-ethyl3-[4-(5H-dibenzo[a,d][7]annulen-5-ylidene)-1-piperidinyl]-1-(hydroxymethyl)-3-oxopropylcarbamate]	75	2000
